Legend:
[1] = tested on: patient with light to moderate OSA; assay: Controlled repeated dosing, repeated withdrawal study of zonisamide with polysomnographic recording; assay type: in vivo, human; details: for Sat <90%/hr (number of episodes reaching an oxygen saturation below 90% per hour of sleep): Day 0 baseline 4; for B-gluc (blood glucose concentration): Day 0 baseline 6.7; for CSAI (central sleep apnea index): Day 0 baseline 8; for AI (apnea index, number of obstructive apneas per hour of sleep): Day 0 baseline 16; for HI (hypopnea index, number of obstructive hypopneas per hour of sleep): Day 0 baseline 22; for BMI (body mass index): Day 0 baseline 26.5; for AHI (apnea/hypopnea index): Day 0 baseline 38; for MinSat (lowest oxygen saturation value reached during the sleep recording): Day 0 baseline 82; for DBP (diastolic blood pressure): Day 0 baseline 95; for SBP (systolic blood pressure): Day 0 baseline 165
Method: A controlled repeated dosing, repeated withdrawal study of zonisamide was undertaken in a patient (BMI 26.5) with light to moderate OSA (A/H index, 30 and 35 on previous screening). […] A baseline polysomographic recording (standard sleep montage, nasal pressure recording) was undertaken at baseline and zonisamide therapy was started at 100 mg o.d. orally (Zonegran® capsules) with an increase to 400 mg after two weeks and finally to 600 mg at the end of 12 weeks. Repeat sleep recordings were undertaken after 19 days (5 days on 400 mg) and after 90 days (6 days on 600 mg). The following key index data were recorded (Table 1).

[2] = tested on: three male patients with light to moderate/severe OSA; assay: Uncontrolled repeated dosing study of zonisamide with polysomnography; assay type: in vivo, human; details: for AHI, mean for all patients: baseline mean 30; for BMI, mean for all patients: baseline mean 32; for Sat. min, mean for all patients: baseline mean 84
Method: Uncontrolled repeated dosing of zonisamide. An uncontrolled study of three male patients (mean BMI at baseline 32) with light to moderate/severe OSA treated with zonisamide up to an average of 177 days was performed. Polysomnography (standard sleep montage, nasal pressure recording) was undertaken at baseline. Zonisamide therapy was started at 50 or 100 mg o.d. orally (Zonegran® capsules). […] A repeat sleep study (follow-up 1) was undertaken. A further sleep study (follow-up 2) was performed after 165, 218 and 149 days at doses of 400, 600 and 200 mg, respectively. The follow-up 2 measurements were thus performed at a pharmacokinetical steady-state.

[3] = cited from earlier work
[4] = Day 19 (5 days on 400 mg o.d. orally)
[5] = Day 90 (6 days on 600 mg orally)
[6] = during treatment, 100 to 600 mg orally
[7] = starting already after 10 days of treatment
[8] = follow-up 1, mean dose 200 mg, mean 33 days of treatment
[9] = follow-up 2, mean dose 400 mg, mean 177 days of treatment
[10] = patient two, early titration phase, 50 mg zonisamide, simplified sleep recording

For `NS(=O)(=O)Cc1noc2ccccc12` [zonisamide, 1,2-benzisoxazole-3-methanesulfonamide], the “Sat <90%/hr (number of episodes reaching an oxygen saturation below 90% per hour of sleep)” value [1, 4] was <1 per hour of sleep, the B-gluc (blood glucose concentration) [1, 4] was 6.4 mM and the “CSAI (central sleep apnea index)” value [1, 4] was 2 per hour of sleep. The “AI (apnea index, number of obstructive apneas per hour of sleep)” value [1, 4] was 4 per hour of sleep, the “HI (hypopnea index, number of obstructive hypopneas per hour of sleep)” value [1, 4] was 9 per hour of sleep and the “BMI (body mass index)” value [1, 4] was 26.4 kg/m^2. The “AHI (apnea/hypopnea index)” value [1, 4] was 13 per hour of sleep, the “MinSat (lowest oxygen saturation value reached during the sleep recording)” value [1, 4] was 89 and the “DBP (diastolic blood pressure)” value [1, 4] was 89 mmHg. For the same compound, the “SBP (systolic blood pressure)” value [1, 4] was 155 mmHg, the “Sat <90%/hr (number of episodes reaching an oxygen saturation below 90% per hour of sleep)” value [1, 5] was 0 per hour of sleep and the B-gluc (blood glucose concentration) [1, 5] was 5.9 mM. The “CSAI (central sleep apnea index)” value [1, 5] was 2 per hour of sleep, the “AI (apnea index, number of obstructive apneas per hour of sleep)” value [1, 5] was 2 per hour of sleep and the “HI (hypopnea index, number of obstructive hypopneas per hour of sleep)” value [1, 5] was 6 per hour of sleep. The “BMI (body mass index)” value [1, 5] was 25.6 kg/m^2, the “AHI (apnea/hypopnea index)” value [1, 5] was 8 per hour of sleep and the “MinSat (lowest oxygen saturation value reached during the sleep recording)” value [1, 5] was 90. For the same compound, the “DBP (diastolic blood pressure)” value [1, 5] was 85 mmHg, the “SBP (systolic blood pressure)” value [1, 5] was 145 mmHg and the “change in total sleep time” value ([1]; after zonisamide) was “no clinically significant change”. The side effects ([1]; during the study period, up to 600 mg orally, 90 days) was “No side effects were reported”, the “number of mixed events” value [1, 6] was “decreased in proportion to the number of obstructive events” and the “polysomnographically recorded sleep variables” value [1, 6] was “not systematically affected”. The apnea reducing effect ([1]; obstructive and central events) was “potent apnea reducing effect”, the daytime sleepiness ([1]; spontaneous reporting, already after 10 days of treatment) was “markedly reduced” and the blood glucose concentration [1, 7] was “gradually reduced”. The blood pressure [1, 7] was “gradually reduced”, the nocturnal snoring episodes ([1]; subjective and spouse reports, soon after onset of treatment) was “clear reduction” and the apnea reducing effect ([2]; dosing levels from below 100 mg up to 600 mg daily) was “potent apnea reducing effect”. The “AHI, mean for all patients” value [2, 8] was 25 per hour of sleep, the “BMI, mean for all patients” value [2, 8] was 31 kg/m^2 and the “Sat. min, mean for all patients” value [2, 8] was 85. For the same compound, the “AHI, mean for all patients” value [2, 9] was 22 per hour of sleep, the “BMI, mean for all patients” value [2, 9] was 30 kg/m^2 and the “Sat. min, mean for all patients” value [2, 9] was 86. The AHI ([2]; patient one, follow-up 1, dose 100 mg, 7 days of treatment, baseline 20) was 12 per hour of sleep, the BMI ([2]; patient one, follow-up 1, dose 100 mg, 7 days of treatment, baseline 28.3) was 28.3 kg/m^2 and the “Sat. min (lowest oxygen saturation value reached during the sleep recording)” value ([2]; patient one, follow-up 1, dose 100 mg, 7 days of treatment, baseline 88) was 85. The AHI ([2]; patient one, follow-up 2, dose 200 mg, 149 days of treatment, baseline 20) was 11 per hour of sleep, the BMI ([2]; patient one, follow-up 2, dose 200 mg, 149 days of treatment, baseline 28.3) was 27.9 kg/m^2 and the “Sat. min (lowest oxygen saturation value reached during the sleep recording)” value ([2]; patient one, follow-up 2, dose 200 mg, 149 days of treatment, baseline 88) was 90. The BMI ([2]; patient three, follow-up 1, dose 100 mg, 10 days of treatment, baseline 35.0) was 35.1 kg/m^2, the AHI ([2]; patient three, follow-up 1, dose 100 mg, 10 days of treatment, baseline 57) was 59 per hour of sleep and the “Sat. min (lowest oxygen saturation value reached during the sleep recording)” value ([2]; patient three, follow-up 1, dose 100 mg, 10 days of treatment, baseline 79) was 80. The BMI ([2]; patient three, follow-up 2, dose 600 mg, 218 days of treatment, baseline 35.0) was 33.5 kg/m^2, the AHI ([2]; patient three, follow-up 2, dose 600 mg, 218 days of treatment, baseline 57) was 53 per hour of sleep and the “Sat. min (lowest oxygen saturation value reached during the sleep recording)” value ([2]; patient three, follow-up 2, dose 600 mg, 218 days of treatment, baseline 79) was 78. For the same compound, the AHI [2, 10] was 8, the BMI [2, 10] was 31.3 and the AHI ([2]; patient two, follow-up 1, dose 400 mg, 81 days of treatment, baseline 12) was 3 per hour of sleep. The BMI ([2]; patient two, follow-up 1, dose 400 mg, 81 days of treatment, baseline 31.4) was 30.7 kg/m^2, the “Sat. min (lowest oxygen saturation value reached during the sleep recording)” value ([2]; patient two, follow-up 1, dose 400 mg, 81 days of treatment, baseline 86) was 91 and the AHI ([2]; patient two, follow-up 2, dose 400 mg, 165 days of treatment, baseline 12) was 3 per hour of sleep. For the same compound, the BMI ([2]; patient two, follow-up 2, dose 400 mg, 165 days of treatment, baseline 31.4) was 29.3 kg/m^2, the “Sat. min (lowest oxygen saturation value reached during the sleep recording)” value ([2]; patient two, follow-up 2, dose 400 mg, 165 days of treatment, baseline 86) was 90 and the daytime sleepiness ([2]; spontaneous reporting by the patients) was “overall positive effect”. The “polysomnographically recorded sleep variables” value ([2]; three patients, during treatment) was “not systematically affected”, the side effects ([2]; three patients, up to 600 mg, up to an average of 177 days) was “No significant side effects were reported” and the half-life in plasma [3] was “about 60 hrs”.

From patent US7655681B2, “Method of treating and diagnosing sleep disordered breathing and means for carrying out the method” (priority 2004, dated 2010)
